Source: the OPERA property sets (Mansouri et al. 2018)
Peptide text beside a SMILES is read from it.

Details: not given

SMILES	logP
c1ccc(Cc2cc(-c3ccccc3)nnc2NCCN2CCOCC2)cc1	3.65
COC(=S)NCCn1c([N+](=O)[O-])cnc1C	1.15
NC(=O)C(Cl)(Cl)Cl	1.04
NCc1cc(O)no1	-2.39
CCn1nnc(Oc2ccc(NC(=O)N(C)C)cc2Cl)n1	1.7
c1ccc2c(c1)Oc1ccccc1S2	4.54
CN(CC(O)COc1ccccc1)CC(O)COc1ccccc1 (configuration not stated)	2.92
CCOc1ccccc1	2.51
Clc1ccc(Cl)c(-c2ccc(Cl)c(Cl)c2)c1	6.23
CC(=O)NC(C(=O)NC(CCC(N)=O)C(N)=O)C(C)C (stereo not drawn) (Ac-Val-Gln-NH2; configuration not given here)	-1.82
Cc1cccc(OC(=O)CNC(=O)c2ccccc2)c1	2.72
Cc1cc(O)c(C(C)C)cc1Cl	3.92
CNCC(=O)O	-2.78
COP(=O)(OC)OC(Br)C(Cl)(Cl)Br (configuration not stated)	1.38
Cc1cnc2ccccc2n1	1.61
NCCc1cccnc1	-0.11
CC(C)c1ccc(O)c(=O)cc1	1.89
Fc1ccccc1F	2.37
N#Cc1ccc2cc[nH]c2c1	2.38
Cc1cccc(C#N)n1	0.84
O=C1C=CC(=O)c2ccccc21	1.71

SMILES	logP
COC(=O)C(Cc1ccc(O)cc1)NC(C)=O (configuration not stated)	0.33
Cc1cc2occ(C)c2c2oc(=O)ccc12	3.02
ClCCOCCCl	1.29
Cc1cc(Cl)ccc1N=CN(C)C	2.89
O=C(O)c1ccccc1Nc1ccccc1	4.36
Nc1cc2c3ccccc3ccc2c2ccccc12	4.99
OCCN1CCN(CCC=C2c3ccccc3Sc3ccc(Cl)cc32)CC1	4.18
Nc1ccc2[nH]ccc2c1	0.7
Cc1cc2ccccc2cn1	2.68
O=C1c2ccccc2C(=O)N1c1ccccc1	2.4
O=C(Nc1ccccc1)N(Cc1ccc(Cl)cc1)C1CCCC1	4.82
O=NN(CCCl)C(=O)NC1CC2CCC1C2 (configuration not stated)	2.98
Cn1ccc(=O)[nH]c1=O	-1.2
Clc1nc(Cl)c(Cl)[nH]1	1.85
CCNc1nc(NC(C)C)nc(SC)n1	2.98
COc1cc2c(c(OC)c1OC)-c1ccc(=O)c(OC)cc1C(NC(C)=O)CC2 (configuration not stated)	1
BrCCCBr	2.37
FC(F)(F)c1cccc(C2CNCCO2)c1 (configuration not stated)	2.18
Cc1cccc(C(N)=O)c1	1.18
Clc1cccc(-c2ccccc2Cl)c1	5.02
NC(=O)CCCc1ccncc1	-0.09

SMILES	logP
CC(C)(C(=O)O)C(=O)O	0.39
O=c1ccc(=O)[nH][nH]1	-0.84
S=C(N/N=C/c1cc[nH]c1)Nc1ccccc1	3.73
O=[N+]([O-])c1ccccc1	1.85
CCc1ccccc1C	3.53
N#CCC(N)=C(C#N)C#N	-0.13
O=NN(CCCl)C(=O)NC1CCCC1	2.2
O=[N+]([O-])c1cc[n+]([O-])c2ccccc12	1.09
CC(=O)Nc1cccc2cccnc12	1.91
O=C(O)Cn1nc2ccccc2n1	-1.64
N#CCC(=O)O	-0.76
CN(C)C(=O)Nc1cccc(C(F)(F)F)c1	2.42
CC1(C)S[C@@H]2[C@H](NC(=O)COc3ccccc3)C(=O)N2[C@H]1C(=O)O	2.09
CS(=O)(=O)c1c(F)c(F)c(F)c(F)c1F	1.11
c1ccc2c(c1)cnn2C12CC3CC(CC(C3)C1)C2	4.33
CN(C)C(=O)Nc1ccc(Cl)cc1	1.94
O=C(O)CCS	0.43
C=CCOc1ccccc1C(=C)n1ccnc1	2.79
N#Cc1cc(-c2ccccc2)nnc1NCCN1CCOCC1	1.89
CCCCCBr	3.37
COC(=O)c1ccco1	1

SMILES	logP
O=C(Cn1c(=O)sc2ccc(Cl)cc21)N1CCNCC1	1.35
CCCOc1c(OC)cc(CCN)cc1OC	1.7
CNCCOc1cc(C)c(O)cc1C(C)C	2.35
CC12CCC(=O)C=C1CCC1C2C(O)CC2(C)C1CCC2(O)C(=O)COC(=O)CCCCCC(N)=O (configuration not stated)	2.3
CCCCOC(=O)c1ccc(N)cc1	2.87
CCCCCNc1nc(NCC)nc(SC(F)F)n1	4.71
O=[N+]([O-])c1cccc(-c2ccccc2)c1	3.87
CC(C)(C)c1ccc(N)cc1	2.7
Nc1ccccc1SSc1ccccc1N	3.05
CCCCN(CCCC)CC(O)c1ccccc1 (configuration not stated)	3.16
N#Cc1cccc2cccnc12	1.39
C=CC(=O)c1ccccc1	1.88
O=C(NC(CO)C(O)c1ccc([N+](=O)[O-])cc1)C(Br)Br (configuration not stated)	1.36
C=C1C(=O)OC2CC(C)C3C=CC(=O)C3(C)C(OC(=O)CC(=O)OC3C4C(=C)C(=O)OC4CC(C)C4C=CC(=O)C43C)C12 (configuration not stated)	1.33
COc1cc([N+](=O)[O-])c(OC)cc1CC(C)N (configuration not stated)	1.74
c1ccc2occc2c1	2.67
CCCCOC(=O)c1ccc(S(N)(=O)=O)cc1	2.34
c1ccc(-c2cccs2)cc1	3.74

Same assay, conditions: pH 7.4

SMILES	logD
O=C(O)CCCc1ccc(N(CCCl)CCCl)cc1	1.7
